The test system of experiment [1] is activation of HIV-1 in OM-10.1 cells. Conditions: poster NCDDG/AIDS 1991; cited from earlier work.
Experiment [2] has as its system human neutrophil adhesion to TNF-α stimulated human umbilical vein endothelial cells (HUVEC). As to the kind of experiment: Inhibition of human neutrophil adhesion to TNF-stimulated human umbilical vein endothelial cells (modified method, calcein-AM fluorescence). In kind it is cell-based. Conditions: for pIC50: 4 hours, IC50 from 33.3, 10.0, 3.3 and 1.0 μM. The protocol: MODIFIED METHOD FOR DETERMINING THE INHIBITION OF HUMAN NEUTROPHIL ADHESION TO TNF-α, IL-1α, AND LPS STIMULATED
HI/MAN UMBILICAL VEIN ENDOTHELIAL CELLS BY
3-SUBSTITUTED-INDOLE-2-CARBOXAMIDES
Second passage HUVEC (Clonetics Corporation, San Diego, Calif., CC-2617) were seeded into Corning (Corning glass works, Corning, N.Y.) 96-well cell culture plates at approximately 5×10^3 cells/well and grown to confluency in supplemented endothelial basal medium (EBM, MCDB-131, Clonetics, 10 ng/mL EGF, 1 μg/mL hydrocortisone, 0.4% bovine brain extract, 5% Fetal Bovine Serum). One day prior to running the assay, typically 3 days postseeding, the cultures were re-fed with 0.2 mL/well supplemented EBM (S-EBM).
Preparation of Test Compounds
Test compounds were prepared as 10 mL stock solutions at a concentration of 1.0 mM. The compounds were initially solubilized in 0.1 mL DMSO followed by the addition of 9.9 mL S-EBM. The drug preparations were then diluted in one step to a concentration of 66.6 μM. Solubilizations and dilutions were performed in polystyrene containers.
Isolation of Human Neutrophils
Human neutrophils were isolated from anticoagulant-treated venous blood obtained from healthy volunteers according to the method of Ferrante and Thong, J. Immunol. Methods 1978;24:389-393. The cell preparations consisted of greater than 98% neutrophils.
Recombinant human tumor necrosis factor-α (TNF, Genzyme, Boston, Mass., code TNF-H) was prepared at 400 U/mL in S-EBM. Stock TNF was prepared to 20,000 U/mL in Delbecco's phosphate buffered saline (PBS, Gibco, Grand Island, N.Y.) plus 0.1% BSA and stored at -70° C. HUVEC were washed one time with 0.2 mL warm unsupplemented EBM and then stimulated for 4 hours at 37° C. with 200 U/mL TNF in the presence of 33.3 μM test compound. This was accomplished by adding 0.1 mL of 400 U/mL TNF and 0.1 mL 66.6 μM test compound. These additions were done slowly as to not disrupt the HUVEC monolayer. Each compound was tested in six wells. Unstimulated (vehicle control) and TNF-stimulated without test compound treatments were also run in each plate.
One hour prior to adding the neutrophils to the HUVEC, neutrophils (5×10^6 /mL) were labeled for 30 minutes at 37° C. with 5 μM calcein-AM (Molecular Probes, Eugene, Oreg.) in Hanks' balanced salt solution plus 0.45% BSA. Stock calcein was prepared to 5 mM in anhydrous DMSO and stored desiccated at -20° C. At the end of the incubation the cells were washed two times in cold HBSS and resuspended to a final concentration of 1×10^6 cells/mL in unsupplemented EBM.
Addition of Neutrophils to HUVEC
At the end of the 4-hour stimulation and immediately prior to the addition of the neutrophils to the HUVEC monolayer, the plates were washed with 0.2 mL warm unsupplemented EBM to remove TNF and drug. Neutrophils (1×10^5 cells) were slowly added to each of the treated wells and incubated for 30 minutes at 37° C. At the end of the incubation the plates were washed two times with 0.2 mL warm unsupplemented EBM followed by a final addition of 0.1 mL for plate scanning.
Determination of Relative Fluorescence
The relative fluorescence was determined using a Millipore Cytofluor 2300 system (excitation=480, emission=530, sensitivity=4). Each file was saved on disk as a comma separated value (.CSV) file for import into a spreadsheet.
Results were expressed as means of percent inhibition of TNF-stimulated adherence. A Quattro Pro (Borland, Scotts Valley, Calif.) spreadsheet has been programmed to accept the raw data and perform all necessary calculations. [formula]
Linear regression analysis of the means of the inhibition values were used to determine the IC50.

Experiment [3] has as its system human neutrophil adhesion to TNF-α, IL-1α, and LPS-stimulated human umbilical vein endothelial cells (HUVEC). As to the kind of experiment: Inhibition of human neutrophil adhesion to TNF-α, IL-1α, and LPS-stimulated human umbilical vein endothelial cells (chromium assay). Format: cell-based. From the text:
METHOD FOR DETERMINING THE INHIBITION OF HUMAN NEUTROPHIL ADHESION TO TNF-α, IL-1α, AND LPS-STIMULATED HUMAN UMBILICAL VEIN ENDOTHELIAL
CELLS BY 3-SUBSTITUTED-INDOLE-2-CARBOXAMIDES
Neutrophils were isolated from anticoagulant-treated venous blood obtained from healthy human volunteers according to the method of Ferrante and Thong (J. Immunol. Methods 1978;24:389-393). The cell preparations consisted of greater than 98% neutrophils.
Second passage human umbilical vein endothelial cells (HUVEC) (Clonetics, San Diego, Calif.) were seeded into Falcon 24-well cell culture plates (Becton Dickinson, Lincoln Park, N.J.) at approximately 2×10^4 cells per well. The cells were grown to confluent monolayers in endothelial basal medium (EBM, Clonetics) supplemented with 5% fetal calf serum (Hyclone Laboratories, Logan, Utah), 10 ng/mL EGF, 1μg/mL hydrocortisone, 0.4% bovine brain extract (Clonetics) in 5% CO2 at 37° C. […]
Stimulation of HUVEC with tumor necrosis factor-α (TNF-α) (Genzyme, Cambridge, Mass.), interleukin (IL-1α) (Genzyme) or E. coli 0111:B4 lipopolysaccharide (LPS) (Sigma) in the presence or absence of drug was initiated 4 hours prior to the addition of neutrophils. […] Lysates were collected and the radioactivity in each well was determined by gamma ray spectroscopy.

In experiment [4] the test system is HIV activation in OM-10.1 cells. As to the kind of experiment: Inhibition of activation of latent HIV in OM-10.1 cells. In kind it is cell-based, HIV-1. Conditions: Human immunodeficiency virus 1, chronically HIV-infected promyelocytic clone. From the text: The cellular pathways involved in mediating the activating signal from the plasma membrane to the integrated virus, resulting in HIV-1 expression, are much less clear. Recently, the development of a reliable and simple system for evaluating compounds that could prevent activation of latent HIV was reported at the National […] (NCDDG)/AIDS by P. Feorino, S. T. Butera, T. M. Folks, and R. F. Schinazi, Nov. 3-7, 1991. The assay system employed the OM-10.1 cell line, a unique chronically-infected promyelocytic clone which remains CD4+ until HIV-1 activation with tumor necrosis factor-α. The expression of CD4+ on the cell surface and the activity of reverse transcriptase are used as markers for quantitating viral expression. Alternatively, other HIV markers, such as protease activity, which are known to those of skill in the art can be used. OM-10.1 cells remain CD4^+ until viral activation and respond to tumor necrosis factor induction, and therefore, these cultures are used to conveniently and rapidly examine pharmacologics for an ability to prevent CD4^+ down modulation (decrease in expression of CD4^+ on the cell surface) and HIV-1 expression.

pIC50: −log10 of the molar value. Counter-ions that a name gives are not always drawn.

Consider interferon Y: interferon Y, for which, in experiment [1], the “inhibition of the activation of HIV-1” value is recorded as “modest inhibitors”.
For orientation: pIC50 means −log10 of the IC50, conventionally taken in molar units. In the case of `COc1ccc2c(c1)c(SC(C)C)c(C(N)=O)n2C` [Example 26, 5-Methoxy-1-methyl-3-[(1-methylethyl)thio]-1H-indole-2-carboxamide], the negative-log IC50 (pIC50) in experiment [2] is 4.54.
Regarding `CC(C)Sc1c(C(N)=O)n(C)c2ccc(O)cc12` [Example 29, 5-Hydroxy-1-methyl-3-[(1-methylethyl)thio]-1H-indole-2-carboxamide], the pIC50 in experiment [2] is 4.37.
One may read the inhibition as how much of the control response was suppressed. Consider `CCOc1c(C(N)=O)n(-c2ccccc2)c2ccc(OC)cc12` [Example 19, 3-Ethoxy-5-methoxy-1-phenyl-1H-indole-2-carboxamide], for which the inhibition at 33 µM in experiment [2] is 13%.
Compound `COc1ccc2c(c1)c(OC(C)C)c(C(N)=O)n2-c1ccccc1` [Example 16, 5-Methoxy-3-(1-methylethoxy)-1-phenyl-1H-indole-2-carboxamide] had an inhibition at 100 µM in experiment [3] of 35%.
Regarding `CC(=O)N(O)CCCCCNC(=O)CCC(=O)N(O)CCCCCNC(=O)CCC(=O)N(O)CCCCCN` [desferrioxamine], the “inhibition of the activation of HIV-1” value in experiment [1] is “modest inhibitors”.
Turning to `COc1ccc2[nH]c(C(N)=O)c(OC(C)C)c2c1` [Example 18, 5-Methoxy-3-(1-methylethoxy)-1H-indole-2-carboxamide], the pIC50 in experiment [2] is 5.10.
`CC(C)Sc1c(C(N)=O)n(C)c2ccc(OCc3ccccc3)cc12` [Example 23, 1-Methyl-3-[(1-methylethyl)thio]-5-(phenylmethoxy)-1H-indole-2-carboxamide]: the inhibition at 33 µM in experiment [2] was 15%.
For `CC(C)Oc1c(C(N)=O)n(C)c2ccc(O)cc12` [Example 15, 5-Hydroxy-1-methyl-3-(1-methylethoxy)-1H-indole-2-carboxamide], the pIC50 in experiment [2] is 5.15.
For the compound `Cc1cn([C@H]2C[C@H](F)[C@@H](CO)O2)c(=O)[nH]c1=O` [3'-fluoro-3'-deoxythymidine (FLT), 3'-fluoro-3'-deoxythymidine], in experiment [1], the “inhibition of the activation of HIV-1” value is reported as “modest inhibitors”.
Take `COCn1c(C(N)=O)c(OC(C)C)c2cc(OC)ccc21` [Example 30, 5-Methoxy-1-methoxymethyl-3-(1-methylethoxy)-1H-indole-2-carboxamide]: the negative logarithm of the IC50 (pIC50) in experiment [2] is 4.47.
As for `CCN(CC)c1c(C(N)=O)[nH]c2ccc(OC)cc12` [Example 20, 3-(Diethylamino)-5-methoxy-1H-indole-2-carboxamide, monohydrochloride], the inhibition at 33 µM in experiment [2] was 27%.
For the compound `COc1ccc2c(c1)c(OC(C)C)c(C(N)=O)n2C` [Example 1, 5-Methoxy-1-methyl-3-(1-methylethoxy)-1H-indole-2-carboxamide], the pIC50 in experiment [2] was 5.00; in experiment [4] it was 6.10.
Take `COc1ccc2c(c1)c(SC)c(C(N)=O)n2C` [Example 6, 5-Methoxy-1-methyl-3-(methylthio)-1H-indole-2-carboxamide]: the inhibition at 33 µM in experiment [2] is 72%.
